Key:
Assay in all cases: radiometric filter-binding kinase assay
MAP3K11 (human) = MAP3K11 (human) (UniProt Q16584); conditions: compound 100.0 µM; ATP 20 µM
MARK3 (human) = MARK3 (human) (UniProt P27448); conditions: compound 100.0 µM; ATP 5 µM
ZAP70 (human) = ZAP70 (human) (UniProt P43403); conditions: compound 100.0 µM; ATP 5 µM
EEF2K (human) = EEF2K (human) (UniProt O00418); conditions: compound 100.0 µM; ATP 5 µM
MARK4 (human) = MARK4 (human) (UniProt Q96L34); conditions: compound 100.0 µM; ATP 50 µM
EPHA2 (human) = EPHA2 (human) (UniProt P29317); conditions: compound 100.0 µM; ATP 50 µM
MAPK1 (human) = MAPK1 (human) (UniProt P28482); conditions: compound 100.0 µM; ATP 20 µM
MELK (human) = MELK (human) (UniProt Q14680); conditions: compound 100.0 µM; ATP 50 µM
[1] = test system: AKT2 (human), P31751 [S474D]; conditions: compound 100.0 µM; ATP 50 µM
EPHB2 (human) = EPHB2 (human) (UniProt P29323); conditions: compound 100.0 µM; ATP 20 µM
EPHB3 (human) = EPHB3 (human) (UniProt P54753); conditions: compound 100.0 µM; ATP 20 µM
[2] = target: STK11 CAB39 STRADA (human) (UniProt Q9Y376+Q7RTN6+Q15831); conditions: compound 100.0 µM; ATP 20 µM
RPS6KA1 KD1 KD2 (human) = RPS6KA1 KD1 KD2 (human) (UniProt Q15418); conditions: compound 100.0 µM; ATP 50 µM
MAPK8 (human) = MAPK8 (human) (UniProt P45983); conditions: compound 100.0 µM; ATP 20 µM
TAOK1 (human) = TAOK1 (human) (UniProt Q7L7X3); conditions: compound 100.0 µM; ATP 20 µM
Chain of TAOK1 (human) (Q7L7X3 whole entry, looked up): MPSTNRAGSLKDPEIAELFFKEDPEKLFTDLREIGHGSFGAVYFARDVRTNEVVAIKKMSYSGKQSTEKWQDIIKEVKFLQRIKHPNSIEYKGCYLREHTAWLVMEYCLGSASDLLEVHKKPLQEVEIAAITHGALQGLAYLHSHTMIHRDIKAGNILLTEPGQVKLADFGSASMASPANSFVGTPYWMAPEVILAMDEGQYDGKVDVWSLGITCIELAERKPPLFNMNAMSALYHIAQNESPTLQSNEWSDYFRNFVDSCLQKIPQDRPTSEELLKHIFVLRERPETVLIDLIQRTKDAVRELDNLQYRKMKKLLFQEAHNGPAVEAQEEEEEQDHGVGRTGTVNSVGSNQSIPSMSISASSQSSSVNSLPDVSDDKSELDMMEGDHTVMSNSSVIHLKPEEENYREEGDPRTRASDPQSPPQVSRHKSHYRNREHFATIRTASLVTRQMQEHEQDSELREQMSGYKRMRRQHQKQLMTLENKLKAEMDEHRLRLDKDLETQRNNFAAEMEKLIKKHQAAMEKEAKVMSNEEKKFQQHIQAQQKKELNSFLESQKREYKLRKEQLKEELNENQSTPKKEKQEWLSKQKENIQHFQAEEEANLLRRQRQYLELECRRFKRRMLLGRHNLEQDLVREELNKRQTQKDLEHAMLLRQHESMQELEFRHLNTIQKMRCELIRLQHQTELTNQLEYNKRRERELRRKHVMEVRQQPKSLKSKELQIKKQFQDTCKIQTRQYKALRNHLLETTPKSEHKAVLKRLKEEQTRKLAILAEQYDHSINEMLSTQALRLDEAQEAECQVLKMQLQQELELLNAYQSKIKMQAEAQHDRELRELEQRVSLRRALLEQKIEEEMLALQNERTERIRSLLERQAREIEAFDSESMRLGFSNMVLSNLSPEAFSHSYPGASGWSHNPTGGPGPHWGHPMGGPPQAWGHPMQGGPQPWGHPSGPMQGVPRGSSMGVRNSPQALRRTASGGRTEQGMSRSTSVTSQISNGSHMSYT

HIPK2 (human) = HIPK2 (human) (UniProt Q9H2X6); conditions: compound 100.0 µM; ATP 5 µM
MYLK (human) = MYLK (human) (UniProt Q15746); conditions: compound 100.0 µM; ATP 50 µM
MST4 (human) = MST4 (human) (UniProt Q9P289); conditions: compound 100.0 µM; ATP 20 µM
IGF1R (human) = IGF1R (human) (UniProt P08069); conditions: compound 100.0 µM; ATP 5 µM
Chain of IGF1R (human) (P08069 whole entry, looked up): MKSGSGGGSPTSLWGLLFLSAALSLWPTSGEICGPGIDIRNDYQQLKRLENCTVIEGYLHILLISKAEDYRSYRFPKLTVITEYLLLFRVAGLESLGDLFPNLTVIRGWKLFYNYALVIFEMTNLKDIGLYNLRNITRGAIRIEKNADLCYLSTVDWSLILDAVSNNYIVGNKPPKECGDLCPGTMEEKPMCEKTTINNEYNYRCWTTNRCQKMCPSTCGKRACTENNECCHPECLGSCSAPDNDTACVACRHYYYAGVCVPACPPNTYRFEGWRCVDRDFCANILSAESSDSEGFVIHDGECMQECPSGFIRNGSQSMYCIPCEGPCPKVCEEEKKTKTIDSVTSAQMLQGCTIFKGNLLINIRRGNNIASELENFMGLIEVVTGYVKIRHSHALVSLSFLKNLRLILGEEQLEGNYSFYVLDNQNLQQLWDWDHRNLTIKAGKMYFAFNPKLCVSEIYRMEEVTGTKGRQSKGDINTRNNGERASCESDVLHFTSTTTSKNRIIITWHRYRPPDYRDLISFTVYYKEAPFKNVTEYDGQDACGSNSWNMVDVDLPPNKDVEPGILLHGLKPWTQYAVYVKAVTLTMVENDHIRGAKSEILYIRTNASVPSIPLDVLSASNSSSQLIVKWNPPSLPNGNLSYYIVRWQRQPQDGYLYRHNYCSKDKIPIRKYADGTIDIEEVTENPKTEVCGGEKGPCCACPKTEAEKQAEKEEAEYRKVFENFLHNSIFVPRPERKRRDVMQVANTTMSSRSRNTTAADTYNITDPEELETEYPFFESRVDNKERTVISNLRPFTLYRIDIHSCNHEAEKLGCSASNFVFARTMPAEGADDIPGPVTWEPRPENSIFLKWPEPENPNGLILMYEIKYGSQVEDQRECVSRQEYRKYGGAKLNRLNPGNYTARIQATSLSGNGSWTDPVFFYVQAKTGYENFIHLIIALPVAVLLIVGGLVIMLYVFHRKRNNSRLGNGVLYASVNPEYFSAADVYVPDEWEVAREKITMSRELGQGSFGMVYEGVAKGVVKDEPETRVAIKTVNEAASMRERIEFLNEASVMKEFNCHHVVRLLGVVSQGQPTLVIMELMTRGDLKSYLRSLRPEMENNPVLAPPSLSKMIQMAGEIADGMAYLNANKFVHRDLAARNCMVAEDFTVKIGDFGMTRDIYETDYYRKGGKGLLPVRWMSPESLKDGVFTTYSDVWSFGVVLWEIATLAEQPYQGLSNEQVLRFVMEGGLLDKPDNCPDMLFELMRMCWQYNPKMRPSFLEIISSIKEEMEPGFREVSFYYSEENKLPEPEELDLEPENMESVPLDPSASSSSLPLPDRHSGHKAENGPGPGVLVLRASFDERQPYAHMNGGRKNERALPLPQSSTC

PTK6 (human) = PTK6 (human) (UniProt Q13882); conditions: compound 100.0 µM; ATP 20 µM
EPHB4 (human) = EPHB4 (human) (UniProt P54760); conditions: compound 100.0 µM; ATP 5 µM
MINK1 (human) = MINK1 (human) (UniProt Q8N4C8); conditions: compound 100.0 µM; ATP 50 µM
Chain of MINK1 (human) (Q8N4C8 whole entry, looked up): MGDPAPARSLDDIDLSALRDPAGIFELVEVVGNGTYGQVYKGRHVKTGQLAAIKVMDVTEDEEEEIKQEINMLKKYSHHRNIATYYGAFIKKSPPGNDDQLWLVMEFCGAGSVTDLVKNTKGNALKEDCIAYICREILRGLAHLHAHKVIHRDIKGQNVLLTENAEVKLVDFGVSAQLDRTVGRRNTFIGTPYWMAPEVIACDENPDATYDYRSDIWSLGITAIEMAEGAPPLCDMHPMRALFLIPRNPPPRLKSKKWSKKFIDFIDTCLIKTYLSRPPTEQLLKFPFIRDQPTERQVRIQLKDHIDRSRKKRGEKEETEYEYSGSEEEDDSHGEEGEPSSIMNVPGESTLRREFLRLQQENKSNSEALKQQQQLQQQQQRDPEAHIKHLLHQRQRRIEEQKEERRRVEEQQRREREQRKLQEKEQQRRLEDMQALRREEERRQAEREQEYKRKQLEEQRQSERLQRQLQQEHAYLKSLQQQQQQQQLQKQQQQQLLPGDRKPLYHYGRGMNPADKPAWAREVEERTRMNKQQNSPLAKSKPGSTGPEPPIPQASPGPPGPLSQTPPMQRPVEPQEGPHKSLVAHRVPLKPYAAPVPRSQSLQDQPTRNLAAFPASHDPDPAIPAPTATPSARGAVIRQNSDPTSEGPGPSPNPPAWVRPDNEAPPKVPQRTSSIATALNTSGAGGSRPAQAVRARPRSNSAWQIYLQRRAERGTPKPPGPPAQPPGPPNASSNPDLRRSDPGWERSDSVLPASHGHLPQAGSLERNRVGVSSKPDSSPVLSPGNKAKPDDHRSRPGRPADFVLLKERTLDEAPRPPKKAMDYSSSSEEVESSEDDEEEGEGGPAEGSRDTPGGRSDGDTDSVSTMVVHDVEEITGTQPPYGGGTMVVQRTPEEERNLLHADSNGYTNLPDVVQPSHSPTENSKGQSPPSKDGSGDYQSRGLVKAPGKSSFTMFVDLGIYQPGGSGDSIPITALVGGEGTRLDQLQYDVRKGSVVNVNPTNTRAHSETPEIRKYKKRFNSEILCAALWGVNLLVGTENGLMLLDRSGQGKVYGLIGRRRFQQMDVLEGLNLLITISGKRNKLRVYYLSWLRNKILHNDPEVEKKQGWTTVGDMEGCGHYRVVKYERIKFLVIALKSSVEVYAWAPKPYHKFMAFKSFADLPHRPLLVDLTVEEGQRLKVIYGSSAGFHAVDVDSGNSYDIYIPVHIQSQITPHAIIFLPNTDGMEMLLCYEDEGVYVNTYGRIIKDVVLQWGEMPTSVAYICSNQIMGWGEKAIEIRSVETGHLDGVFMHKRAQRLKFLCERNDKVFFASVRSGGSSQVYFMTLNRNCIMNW

CSK (human) = CSK (human) (UniProt P41240); conditions: compound 100.0 µM; ATP 20 µM
MARK2 (human) = MARK2 (human) (UniProt Q7KZI7); conditions: compound 100.0 µM; ATP 20 µM
MAPK3 (human) = MAPK3 (human) (UniProt P27361); conditions: compound 100.0 µM; ATP 5 µM
HIPK3 (human) = HIPK3 (human) (UniProt Q9H422); conditions: compound 100.0 µM; ATP 20 µM
FLT1 (human) = FLT1 (human) (UniProt P17948); conditions: compound 100.0 µM; ATP 20 µM
SRPK1 (human) = SRPK1 (human) (UniProt Q96SB4); conditions: compound 100.0 µM; ATP 50 µM
FGFR1 (human) = FGFR1 (human) (UniProt P11362); conditions: compound 100.0 µM; ATP 20 µM
MAPK11 (human) = MAPK11 (human) (UniProt Q15759); conditions: compound 100.0 µM; ATP 20 µM
SYK (human) = SYK (human) (UniProt P43405); conditions: compound 100.0 µM; ATP 20 µM
CLK2 (human) = CLK2 (human) (UniProt P49760); conditions: compound 100.0 µM; ATP 5 µM
PRKCA (human) = PRKCA (human) (UniProt P17252); conditions: compound 100.0 µM; ATP 20 µM
[3] = test system: SGK1 (human), O00141 [S422D]; conditions: compound 100.0 µM; ATP 20 µM
AURKB (human) = AURKB (human) (UniProt Q96GD4); conditions: compound 100.0 µM; ATP 20 µM
MAPK12 (human) = MAPK12 (human) (UniProt P53778); conditions: compound 100.0 µM; ATP 5 µM
STK33 (human) = STK33 (human) (UniProt Q9BYT3); conditions: compound 100.0 µM; ATP 50 µM
Chain of STK33 (human) (Q9BYT3 whole entry, looked up): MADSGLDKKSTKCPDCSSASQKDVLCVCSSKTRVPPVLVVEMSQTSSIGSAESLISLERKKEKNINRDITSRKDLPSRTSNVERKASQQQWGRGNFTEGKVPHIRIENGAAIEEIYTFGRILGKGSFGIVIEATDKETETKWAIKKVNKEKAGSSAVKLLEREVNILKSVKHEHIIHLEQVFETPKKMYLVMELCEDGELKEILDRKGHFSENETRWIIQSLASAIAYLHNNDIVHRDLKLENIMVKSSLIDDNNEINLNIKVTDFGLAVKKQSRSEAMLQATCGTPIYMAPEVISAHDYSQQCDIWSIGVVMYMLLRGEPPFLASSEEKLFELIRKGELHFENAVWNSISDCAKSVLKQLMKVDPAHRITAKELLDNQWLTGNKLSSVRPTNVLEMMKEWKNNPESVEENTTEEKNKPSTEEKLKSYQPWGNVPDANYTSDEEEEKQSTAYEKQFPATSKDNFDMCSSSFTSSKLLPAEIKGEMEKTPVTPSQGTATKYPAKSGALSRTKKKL

MAPK10 (human) = MAPK10 (human) (UniProt P53779); conditions: compound 100.0 µM; ATP 20 µM
PHKG1 (human) = PHKG1 (human) (UniProt Q16816); conditions: compound 100.0 µM; ATP 50 µM
IKBKE (human) = IKBKE (human) (UniProt Q14164); conditions: compound 100.0 µM; ATP 50 µM

Chain of EEF2K (human) (O00418 whole entry, looked up): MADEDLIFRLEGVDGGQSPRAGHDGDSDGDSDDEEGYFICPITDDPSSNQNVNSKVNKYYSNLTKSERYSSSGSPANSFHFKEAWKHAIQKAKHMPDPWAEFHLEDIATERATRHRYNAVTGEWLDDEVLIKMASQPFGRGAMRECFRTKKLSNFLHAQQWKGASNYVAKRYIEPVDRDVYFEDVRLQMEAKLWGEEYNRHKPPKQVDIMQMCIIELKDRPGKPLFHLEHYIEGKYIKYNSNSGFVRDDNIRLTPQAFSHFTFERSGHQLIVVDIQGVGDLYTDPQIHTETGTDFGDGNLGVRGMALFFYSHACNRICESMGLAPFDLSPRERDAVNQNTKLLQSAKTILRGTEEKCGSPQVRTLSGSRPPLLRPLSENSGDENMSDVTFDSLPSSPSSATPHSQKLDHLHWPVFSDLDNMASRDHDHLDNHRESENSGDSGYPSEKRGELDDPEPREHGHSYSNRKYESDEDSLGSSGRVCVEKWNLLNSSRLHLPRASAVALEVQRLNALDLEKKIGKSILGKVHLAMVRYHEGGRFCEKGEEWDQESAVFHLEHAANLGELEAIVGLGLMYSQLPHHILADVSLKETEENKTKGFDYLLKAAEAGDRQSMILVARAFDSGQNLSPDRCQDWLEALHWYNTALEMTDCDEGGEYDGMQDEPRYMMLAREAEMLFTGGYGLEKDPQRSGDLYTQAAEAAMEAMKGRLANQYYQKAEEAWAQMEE

Structure (SMILES) | inhibition (MAP3K11 (human)) [%] | inhibition (MARK3 (human)) [%] | inhibition (ZAP70 (human)) [%] | inhibition (EEF2K (human)) [%] | inhibition (MARK4 (human)) [%] | inhibition (EPHA2 (human)) [%] | inhibition (MAPK1 (human)) [%] | inhibition (MELK (human)) [%] | inhibition [1] [%] | inhibition (EPHB2 (human)) [%] | inhibition (EPHB3 (human)) [%] | inhibition [2] [%] | inhibition (RPS6KA1 KD1 KD2 (human)) [%] | inhibition (MAPK8 (human)) [%] | inhibition (TAOK1 (human)) [%] | inhibition (HIPK2 (human)) [%] | inhibition (MYLK (human)) [%] | inhibition (MST4 (human)) [%] | inhibition (IGF1R (human)) [%] | inhibition (PTK6 (human)) [%] | also measured
Cc1cccc(C)c1-c1cn2nc(N)nc2cn1 | 0 | 0 | 0 | 13 | 24 | 11 | 14 | 8 | 37 | 0 | 35 | 0 | 21 | 7 | 12 | 8 | 12 | 21 | 5 | 15 | inhibition (EPHB4 (human)): 14%; inhibition (MINK1 (human)): 45%; inhibition (CSK (human)): 24%; inhibition (MARK2 (human)): 0%; inhibition (MAPK3 (human)): 31%; inhibition (HIPK3 (human)): 7%; inhibition (FLT1 (human)): 22%; inhibition (SRPK1 (human)): 31%; inhibition (FGFR1 (human)): 42%; inhibition (MAPK11 (human)): 20%; inhibition (SYK (human)): 26%; inhibition (CLK2 (human)): 33%; inhibition (PRKCA (human)): 9%; inhibition [3]: 19%; inhibition (AURKB (human)): 29%; inhibition (MAPK12 (human)): 0%; inhibition (STK33 (human)): 12%; inhibition (MAPK10 (human)): 17%; inhibition (PHKG1 (human)): 41%; inhibition (IKBKE (human)): 28%
O=C(Nc1cnc2[nH]cnn2c1=O)c1ccccc1 | 0 | 5 | 0 | 6 | 0 | 0 | 4 | 0 | 15 | 6 | 0 | 0 | 15 | 0 | 0 | 0 | 0 | 0 | 0 | 19 | inhibition (EPHB4 (human)): 6%; inhibition (MINK1 (human)): 0%; inhibition (CSK (human)): 8%; inhibition (MARK2 (human)): 0%; inhibition (MAPK3 (human)): 13%; inhibition (HIPK3 (human)): 0%; inhibition (FLT1 (human)): 0%; inhibition (SRPK1 (human)): 0%; inhibition (FGFR1 (human)): 0%; inhibition (MAPK11 (human)): 2%; inhibition (SYK (human)): 0%; inhibition (CLK2 (human)): 0%; inhibition (PRKCA (human)): 0%; inhibition [3]: 0%; inhibition (AURKB (human)): 0%; inhibition (MAPK12 (human)): 0%; inhibition (STK33 (human)): 0%; inhibition (MAPK10 (human)): 0%; inhibition (PHKG1 (human)): 28%; inhibition (IKBKE (human)): 0%
CC1CN(c2nc3ccccn3c(=O)c2N)CC(C)O1 (stereo not given) | 0 | 25 | 38 | 35 | 56 | 0 | 12 | 7 | 24 | 20 | 0 | 0 | 0 | 14 | 0 | 0 | 0 | 2 | 0 | 21 | inhibition (EPHB4 (human)): 12%; inhibition (MINK1 (human)): 2%; inhibition (CSK (human)): 0%; inhibition (MARK2 (human)): 13%; inhibition (MAPK3 (human)): 0%; inhibition (HIPK3 (human)): 0%; inhibition (FLT1 (human)): 54%; inhibition (SRPK1 (human)): 74%; inhibition (FGFR1 (human)): 34%; inhibition (MAPK11 (human)): 0%; inhibition (SYK (human)): 13%; inhibition (CLK2 (human)): 57%; inhibition (PRKCA (human)): 15%; inhibition [3]: 0%; inhibition (AURKB (human)): 32%; inhibition (MAPK12 (human)): 1%; inhibition (STK33 (human)): 8%; inhibition (MAPK10 (human)): 9%; inhibition (PHKG1 (human)): 3%; inhibition (IKBKE (human)): 0%

Source: the kinase profiling compilation of Christmann-Franck et al. (2016)
